Experimental data published in PMC6777777 (PLoS ONE, 2019).

Legend:
[1] = target: T1, nicotinic acetylcholine receptor (nAChR) from Torpedo californica (Tetronarce californica, UniProt P02710+P02712+P02714+P02718); experiment: Two-electrode voltage clamp: inhibition of carbachol-stimulated nAChR current; assay type: cell-based
T1 construct: flash-frozen Torpedo electric organ was purchased from Aquatic Research Consultants (San Pedro, CA); tissue Aquatic Research Consultants (San Pedro, CA); host or cells: Torpedo electric organ; Membranes were solubilized in cholate, reconstituted in asolectin liposomes and microinjected as protein into Xenopus oocytes
T1 sequence (P02710 25-461): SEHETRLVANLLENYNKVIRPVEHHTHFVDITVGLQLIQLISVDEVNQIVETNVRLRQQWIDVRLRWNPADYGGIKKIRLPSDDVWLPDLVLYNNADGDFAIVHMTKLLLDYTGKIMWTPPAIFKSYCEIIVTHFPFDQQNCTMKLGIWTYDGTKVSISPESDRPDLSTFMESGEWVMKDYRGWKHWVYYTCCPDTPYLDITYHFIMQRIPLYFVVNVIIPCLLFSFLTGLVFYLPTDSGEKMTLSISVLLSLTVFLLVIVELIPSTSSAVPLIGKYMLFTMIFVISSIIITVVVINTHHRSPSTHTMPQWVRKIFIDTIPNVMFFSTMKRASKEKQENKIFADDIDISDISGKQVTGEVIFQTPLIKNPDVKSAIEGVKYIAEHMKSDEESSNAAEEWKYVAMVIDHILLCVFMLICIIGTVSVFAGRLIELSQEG
T1 sequence (P02712 25-493): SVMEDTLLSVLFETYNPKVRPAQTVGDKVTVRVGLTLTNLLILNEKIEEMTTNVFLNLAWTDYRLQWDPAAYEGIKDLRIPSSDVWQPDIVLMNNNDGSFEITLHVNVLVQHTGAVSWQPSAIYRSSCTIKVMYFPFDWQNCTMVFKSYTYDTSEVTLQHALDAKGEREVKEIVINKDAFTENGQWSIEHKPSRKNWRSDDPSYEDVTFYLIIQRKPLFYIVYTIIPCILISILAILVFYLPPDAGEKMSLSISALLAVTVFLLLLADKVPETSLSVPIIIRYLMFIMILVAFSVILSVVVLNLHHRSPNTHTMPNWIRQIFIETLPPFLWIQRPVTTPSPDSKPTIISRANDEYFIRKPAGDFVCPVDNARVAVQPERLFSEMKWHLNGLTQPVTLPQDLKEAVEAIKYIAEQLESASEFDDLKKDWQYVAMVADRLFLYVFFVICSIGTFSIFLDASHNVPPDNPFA
T1 sequence (P02714 18-506): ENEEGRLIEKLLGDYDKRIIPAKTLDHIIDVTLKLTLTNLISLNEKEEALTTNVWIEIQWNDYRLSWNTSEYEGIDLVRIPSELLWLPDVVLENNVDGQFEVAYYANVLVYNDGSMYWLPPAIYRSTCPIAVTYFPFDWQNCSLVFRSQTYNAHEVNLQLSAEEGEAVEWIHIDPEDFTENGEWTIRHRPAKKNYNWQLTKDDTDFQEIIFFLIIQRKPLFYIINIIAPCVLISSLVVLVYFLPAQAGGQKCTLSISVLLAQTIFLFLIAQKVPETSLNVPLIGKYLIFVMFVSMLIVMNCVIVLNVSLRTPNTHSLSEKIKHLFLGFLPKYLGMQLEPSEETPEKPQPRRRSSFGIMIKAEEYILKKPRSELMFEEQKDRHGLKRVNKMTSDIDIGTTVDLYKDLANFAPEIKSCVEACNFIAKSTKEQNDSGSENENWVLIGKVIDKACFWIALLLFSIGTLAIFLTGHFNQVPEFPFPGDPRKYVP
T1 sequence (P02718 22-522): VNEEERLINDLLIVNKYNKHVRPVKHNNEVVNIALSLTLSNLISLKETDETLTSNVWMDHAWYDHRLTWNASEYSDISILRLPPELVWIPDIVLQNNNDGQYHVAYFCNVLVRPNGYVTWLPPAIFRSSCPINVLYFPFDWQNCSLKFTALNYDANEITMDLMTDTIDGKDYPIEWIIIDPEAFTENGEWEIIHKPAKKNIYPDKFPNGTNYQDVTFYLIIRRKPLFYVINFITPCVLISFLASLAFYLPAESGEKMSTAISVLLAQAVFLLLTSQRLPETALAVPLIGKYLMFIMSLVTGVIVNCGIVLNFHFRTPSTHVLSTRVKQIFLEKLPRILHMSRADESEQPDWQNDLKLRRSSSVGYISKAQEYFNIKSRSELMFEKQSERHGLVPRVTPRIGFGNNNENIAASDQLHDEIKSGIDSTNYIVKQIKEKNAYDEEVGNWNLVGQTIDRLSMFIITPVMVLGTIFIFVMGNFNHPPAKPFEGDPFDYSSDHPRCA

[2] = Titration curve of T3 (pK values); assay type: physicochemical
[3] = target: T1, nicotinic acetylcholine receptor (nAChR) from Torpedo californica; experiment: TEVC desensitization kinetics: decay response of nAChR current, slow component of two-exponential fit; assay type: cell-based; parameters: unit not given here
Method: (§1) Sixteen hours after injection, the oocytes were clamped using a TEVC system. All ligands were dissolved in modified Barth’s solution at the indicated pH and were perfused into the chamber using a gravity-flow system. Thyroid hormones were initially dissolved in 0.1 M NaOH. […] Acetylcholine was applied to the bath surrounding the oocyte using a gravity-flow system at 10–13 mL/min. […] Each ligand perfusion lasted 60–70 seconds; after each perfusion, the bath solution was exchanged with ligand-free buffer until the current response signal had returned to baseline for at least 120 seconds before the next application of ligand(s). Data were recorded using iWorx LabScribe v1.959.
The data were then trimmed to begin with the response as it reached 0.96 of the response peak (to avoid false inflection points by signal noise just after the response’s maximum point), and end 35 seconds post-peak. The data were then fit to a two-degree exponential function (i.e., slow and fast response; y=a×e^−(x/A1)+b×e^−(x/A2) ). […] For each ligand/environmental condition (n = 3, per condition), decay response and amplitude were calculated and averaged.

[4] = target: T1, nicotinic acetylcholine receptor (nAChR) from Torpedo californica; experiment: Two-electrode voltage clamp of oocytes injected with Torpedo nAChRs: inhibition of acetylcholine-stimulated current; assay type: cell-based; conditions: seen at ≥ 100 μM inhibitor, 30 μM acetylcholine
Method: as §1

Compound: CC(=O)[C@H]1CC[C@H]2[C@@H]3CC[C@H]4C[C@H](O)CC[C@]4(C)[C@H]3CC[C@]12C [Allopregnanolone, 3α-hydroxy-5α-pregnan-20-one]
- IC50 [1]: 20 µM

Compound: N[C@@H](Cc1cc(I)c(Oc2ccc(O)c(I)c2)c(I)c1)C(=O)O [T3, L-3,3’,5-triiodothyronine]
- pK3, hydroxy group [2]: 12.25

Compound: pregnenolone sulfate [PS]
- Decay Response Mean ([3]; dose 0.1 μM, pH 6, 30 μM acetylcholine): 17.0
- Decay Response Mean ([3]; dose 0.1 μM, pH 6.5, 30 μM acetylcholine): 26.2
- Decay Response Mean ([3]; dose 0.1 μM, pH 7, 30 μM acetylcholine): 32.7
- Decay Response Mean ([3]; dose 0.1 μM, pH 7.5, 30 μM acetylcholine): 32.3
- Decay Response Mean ([3]; dose 0.1 μM, pH 8, 30 μM acetylcholine): 20.8
- Decay Response Mean ([3]; dose 0.1 μM, pH 8.5, 30 μM acetylcholine): 7.9
- Decay Response Mean ([3]; dose 0.1 μM, pH 9, 30 μM acetylcholine): 31.9
- Decay Response Mean ([3]; dose 1 μM, pH 6, 30 μM acetylcholine): 8.1
- Decay Response Mean ([3]; dose 1 μM, pH 6.5, 30 μM acetylcholine): 24.9
- Decay Response Mean ([3]; dose 1 μM, pH 7, 30 μM acetylcholine): 13.0
- Decay Response Mean ([3]; dose 1 μM, pH 7.5, 30 μM acetylcholine): 11.9
- Decay Response Mean ([3]; dose 1 μM, pH 8, 30 μM acetylcholine): 9.4
- Decay Response Mean ([3]; dose 1 μM, pH 8.5, 30 μM acetylcholine): 1.2
- Decay Response Mean ([3]; dose 1 μM, pH 9, 30 μM acetylcholine): 18.5
- Decay Response Mean ([3]; dose 10 μM, pH 6, 30 μM acetylcholine): 10.5
- Decay Response Mean ([3]; dose 10 μM, pH 6.5, 30 μM acetylcholine): 11.00
- Decay Response Mean ([3]; dose 10 μM, pH 7, 30 μM acetylcholine): 4.6
- Decay Response Mean ([3]; dose 10 μM, pH 7.5, 30 μM acetylcholine): 4.8
- Decay Response Mean ([3]; dose 10 μM, pH 8, 30 μM acetylcholine): 3.0
- Decay Response Mean ([3]; dose 10 μM, pH 8.5, 30 μM acetylcholine): 3.2
- apparent maximal effect: reduction of the nAChR control response [4]: 81 ± 4%
